These results are taken from paper PMC9779727, “Identification of Novel Artemisinin Hybrids Induce Apoptosis and Ferroptosis in MCF-7 Cells” (International Journal of Molecular Sciences, 2022).

Molecules are shown by their SMILES.

Holding throughout (format): cell-based, human
In experiment [1] the test system is ovarian cancer SK-OV-3 cells. Briefly: MTT antiproliferation assay, SK-OV-3. The conditions noted are these: means ± SD, n = 3. From the text: (§1) The target hybrids A1–A15 were screened for their antiproliferation activities against five human cancer cell lines (lung cancer A549 cells, breast cancer MCF-7 and MDA-MB-231 cells, colon cancer HCT116 cells and ovarian cancer SK-OV-3 cells) in vitro by the standard MTT method, and 5-fluorouracil (5-FU) and ART were coassayed as controls. […] Therefore, the most promising hybrid, A8, was chosen for further exploration of the preliminary mechanism of MCF-7 cell antiproliferation.
(§2) Cytotoxicity of test compounds against five different tumor cell lines were evaluated using an MTT assay in vitro. Cells were seeded into 96-well plates at a density of 5 × 10^4 cells per well and stabilized at 37 °C with 5% CO2 for 24 h. Compounds A1–A15, ART and 5-FU were added to each well at various concentrations and then the cells were incubated for 48 h. The MTT solution (100 μL 0.5 mg/mL^−1) was added to each well, and the cells were incubated for another 4 h. Then, 150 μL DMSO was added to each well and the absorbance of samples was measured at 492 nm. The IC50 values were calculated according to Logit method after getting the inhibitory rate.

The test system of experiment [2] is breast cancer MDA-MB-231 cells. Briefly: MTT antiproliferation assay, MDA-MB-231. The conditions noted are these: means ± SD, n = 3.
Description: as §1, §2

Experiment [3] relates to colon cancer HCT116 cells. Briefly: MTT antiproliferation assay, HCT116. The conditions noted are these: means ± SD, n = 3.
Description: as §1, §2

The test system of a further experiment is lung cancer A549 cells. Briefly: MTT antiproliferation assay, A549. The following applies: means ± SD, n = 3.
Description: as §1, §2

Experiment [4] deals with breast cancer MCF-7 cells. Briefly: MTT antiproliferation assay, MCF-7. The conditions noted are these: means ± SD, n = 3.
Description: as §1, §2

The subject of a further experiment is GPX4. Briefly: Western blotting, GPX4 expression. The conditions noted are these: MCF-7, added to A8 treatment. The method, then:
We examined the effect of A8 on the expression of GPX4 as well, which is vital in preventing ferroptosis. […] Thus, we concluded that A8 induced the accumulation of ROS and lipid peroxidation and suppressed GSH levels and the expression of GPX4, thereby leading to the induction of ferroptosis.
MCF-7 cells were seeded at a density of 4 × 10^5 cells per well and treated with various concentrations of compound A8 (0, 2.5, 5 and 10 μM) for 48 h. After this, cells were collected and washed twice with ice-cold DPBS. The pellets were resuspended in a total protein extraction buffer (20 mM HEPES, 350 mM NaCl, 20% glycerol, 1% NP-40, 1 mM MgCl2, 0.5 mM EDTA, 0.1 mM EGTA, 0.1 mM DTT, 0.1 mM PMSF) containing a protease inhibitor cocktail and incubated on ice for 30 min with intermittent mixing. The protein concentration was measured using the Bradford reagent (Bio-Rad Laboratories Inc., Hercules, CA, USA). An equal amount (20 μg) of protein was loaded on 10% polyacrylamide gels and transferred to a nitrocellulose membrane. After blocking with 5% skimmed milk, the membrane was incubated at 4 °C overnight with specific primary antibodies. The membrane was washed and incubated at room temperature for 1 h with secondary antibodies conjugated with horseradish peroxidase (HRP). Finally, the immunoblot was developed for visualization using a chemiluminescence kit. […]

In another experiment the test system is MCF-7 cells. Briefly: Lipid peroxidation (MDA) detection. The conditions noted are these: MCF-7, added to A8 treatment. From the text:
We also determined the effect of A8 on the expression of GSH and MDA (lipid peroxidation).
Lipid peroxidation assay kit (Beyotime, Shanghai, China) was used to detect malonaldehyde (MDA), together with GSH level assay, present in samples, as per the manufacturer’s instruction with slight modifications.

In the case of `CCOc1ccccc1Nc1nnc(CNC(=O)CCC(=O)OC2OC3OC4(C)CCC5C(C)CCC(C2C)C35OO4)o1` (centres unmarked) [A3], the half-maximal inhibitory concentration (IC50) in experiment [1] (48 h) is over 30 µM; in experiment [2] (48 h), over 30 µM; in experiment [3] (48 h) it was over 30 µM; in the experiment with lung cancer A549 cells (48 h) it was over 30 µM; in experiment [4] (48 h) it was 6.82 ± 0.25 µM.
With `COc1ccc(Nc2nnc(CNC(=O)CCC(=O)OC3OC4OC5(C)CCC6C(C)CCC(C3C)C46OO5)o2)cc1` (centres unmarked) [A14], the concentration for half-maximal inhibition (IC50) in experiment [1] (48 h) was over 30 µM; in experiment [2] (48 h) it was 19.4 ± 0.91 µM; in experiment [3] (48 h), over 30 µM; in the experiment with lung cancer A549 cells (48 h) it was over 30 µM; in experiment [4] (48 h), 6.86 ± 0.73 µM.
As for `Cc1cc(C)cc(Nc2nnc(CNC(=O)CCC(=O)OC3OC4OC5(C)CCC6C(C)CCC(C3C)C46OO5)o2)c1` (centres unmarked) [A13], the concentration for half-maximal inhibition (IC50) in experiment [1] (48 h) was over 30 µM; in experiment [2] (48 h), over 30 µM; in experiment [3] (48 h), over 30 µM; in the experiment with lung cancer A549 cells (48 h), over 30 µM; in experiment [4] (48 h), 9.72 ± 0.11 µM.
For the compound `CC1CCC2C(C)C(OC(=O)CCC(=O)NCc3nnc(Nc4ccc(C(F)(F)F)cc4)o3)OC3OC4(C)CCC1C32OO4` (centres unmarked) [A5], the IC50 (in experiment [1] (48 h); in experiment [2] (48 h); in experiment [3] (48 h); in the experiment with lung cancer A549 cells (48 h); in experiment [4] (48 h)) was over 30 µM in each case.
For the compound `CC1CCC2C(C)C(OC(=O)CCC(=O)NCc3nnc(Nc4cc(Br)ccc4Br)o3)OC3OC4(C)CCC1C32OO4` (centres unmarked) [A7], the IC50 (in experiment [1] (48 h); in experiment [2] (48 h); in experiment [3] (48 h); with lung cancer A549 cells (48 h); in experiment [4] (48 h)) was over 30 µM in each case.
As for `CC1CCC2C(C)C(OC(=O)CCC(=O)NCc3nnc(Nc4c(F)cccc4F)o3)OC3OC4(C)CCC1C32OO4` (centres unmarked) [A4], the IC50 (in experiment [1] (48 h); in experiment [2] (48 h); in experiment [3] (48 h); with lung cancer A549 cells (48 h); in experiment [4] (48 h)) was over 30 µM in each case.
`O=c1[nH]cc(F)c(=O)[nH]1` [5FU, 5-fluorouracil, reference compound]: the IC50 in experiment [1] (Homo sapiens, SK-OV-3, 48 h) was over 30 µM; in experiment [2] (Homo sapiens, MDA-MB-231, 48 h), 27.7 ± 1.23 µM; in experiment [3] (Homo sapiens, HCT-116, 48 h), 18.4 ± 1.14 µM; with lung cancer A549 cells (Homo sapiens, A549, 48 h) it was over 30 µM; in experiment [4] (Homo sapiens, MCF7, 48 h), 26.1 ± 0.87 µM.
On to `C[C@@H]1CC[C@H]2[C@@H](C)C(=O)O[C@@H]3O[C@@]4(C)CC[C@@H]1[C@]32OO4` [ART, Artemisinin], for which the concentration for half-maximal inhibition (IC50) in experiment [1] (Homo sapiens, SK-OV-3, 48 h) was over 30 µM; in experiment [2] (Homo sapiens, MDA-MB-231, 48 h), over 30 µM; in experiment [3] (Homo sapiens, HCT-116, 48 h), over 30 µM; in the experiment with lung cancer A549 cells (Homo sapiens, A549, 48 h), 27.2 ± 0.67 µM; in experiment [4] (Homo sapiens, MCF7, 48 h), over 30 µM.
Regarding `CC1CCC2C(C)C(OC(=O)CCC(=O)NCc3nnc(Nc4ccc(Cl)cc4)o3)OC3OC4(C)CCC1C32OO4` (centres unmarked) [A6], the 50% inhibitory concentration (IC50) (in experiment [1] (48 h); in experiment [2] (48 h); in experiment [3] (48 h); in the experiment with lung cancer A549 cells (48 h); in experiment [4] (48 h)) was over 30 µM in each case.
On to `CC1CCC2C(C)C(OC(=O)CCC(=O)NCc3nnc(Nc4ccc(C(C)(C)C)cc4)o3)OC3OC4(C)CCC1C32OO4` (centres unmarked) [A10], for which the IC50 in experiment [1] (48 h) was over 30 µM; in experiment [2] (48 h), over 30 µM; in experiment [3] (48 h), over 30 µM; with lung cancer A549 cells (48 h), over 30 µM; in experiment [4] (48 h) it was 11.1 ± 1.28 µM.
For `CC1CCC2C(C)C(OC(=O)CCC(=O)NCc3nnc(Nc4ccc(Br)cc4)o3)OC3OC4(C)CCC1C32OO4` (centres unmarked) [A11], the concentration for half-maximal inhibition (IC50) (in experiment [1] (48 h); in experiment [2] (48 h); in experiment [3] (48 h); in the experiment on lung cancer A549 cells (48 h); in experiment [4] (48 h)) was over 30 µM each time.
For `CC1CCC2C(C)C(OC(=O)CCC(=O)NCc3nnc(Nc4ccccc4F)o3)OC3OC4(C)CCC1C32OO4` (centres unmarked) [A9], the IC50 in experiment [1] (48 h) is over 30 µM; in experiment [2] (48 h), over 30 µM; in experiment [3] (48 h), over 30 µM; in the experiment on lung cancer A549 cells (48 h) it was over 30 µM; in experiment [4] (48 h) it was 8.89 ± 0.39 µM.
Consider `Cc1ccc(Nc2nnc(CNC(=O)CCC(=O)OC3OC4OC5(C)CCC6C(C)CCC(C3C)C46OO5)o2)c(C)c1` (centres unmarked) [A15], for which the IC50 (in experiment [1] (48 h); in experiment [2] (48 h); in experiment [3] (48 h); in the experiment with lung cancer A549 cells (48 h); in experiment [4] (48 h)) was over 30 µM in each case.
As for `Cc1ccc(Nc2nnc(CNC(=O)CCC(=O)OC3OC4OC5(C)CCC6C(C)CCC(C3C)C46OO5)o2)cc1` (centres unmarked) [A2], the half-maximal inhibitory concentration (IC50) is over 30 µM in experiment [1] (48 h); 4.89 ± 1.58 µM in experiment [2] (48 h); 14.8 ± 1.77 µM in experiment [3] (48 h); over 30 µM in the experiment with lung cancer A549 cells (48 h); 4.26 ± 0.17 µM in experiment [4] (48 h).
`CC1CCC2C(C)C(OC(=O)CCC(=O)NCc3nnc(Nc4ccc(OC(F)(F)F)cc4)o3)OC3OC4(C)CCC1C32OO4` (centres unmarked) [A1]: the half-maximal inhibitory concentration (IC50) in experiment [1] (48 h) is over 30 µM; in experiment [2] (48 h), over 30 µM; in experiment [3] (48 h), over 30 µM; with lung cancer A549 cells (48 h), over 30 µM; in experiment [4] (48 h), 5.2 ± 1.38 µM.
On to `CCOC(=O)c1ccc(NC2CCCCC2)c(N)c1` [Fer-1, ferrostatin-1, reference compound], for which, in the experiment on GPX4, the “effect on A8-suppressed GPX4 expression (in words)” value is given as “restored the expression of GPX4”. Also, the “effect on A8-induced lipid peroxide accumulation (in words)” value in the experiment with MCF-7 cells is given as “reversed lipid peroxide accumulation”.
